Marks after values point to notes of the source that are not given here.
What was measured:
subjects with RRMS [1] = assay: ALLEGRO phase III clinical trial of daily oral laquinimod 0.6 mg in RRMS; type: in vivo, human; settings: laquinimod 0.6 mg daily oral, 24 months
Description: A multinational (24 countries), multicenter (approximately 139 sites), randomized, double-blinded, parallel-group, placebo-controlled clinical trial (“ALLEGRO” or MS-LAQ-301) was conducted to evaluate the efficacy, safety and tolerability of daily oral administration of laquinimod 0.6 mg in subjects with RRMS for a 24 months duration. One thousand one hundred and six (1106) patients were equally randomized to either laquinimod 0.6 mg or placebo and treated in a double-blind manner and baseline characteristics were balanced between groups. The primary endpoint of the study was the number of confirmed relapses during the double-blind treatment period, which corresponds to the annualized relapse rate (ARR—number of relapses divided by total exposure of all patients). Secondary endpoints included disability as measured by Expanded Disability Status Scale (EDSS) changes confirmed at 3 months, and cumulative number of gadolinium enhancing (GdE) and new/enlarging T2 MRI lesions. Double blind treatment phase: 24 months of once-daily oral administration of daily dose of 0.6 mg laquinimod or matching placebo. Eligible subjects were equally randomized 1:1 into one of the following treatment arms: • 1. Laquinimod capsules 0.6 mg: One 0.6 mg laquinimod capsule was administered orally once daily. The 0.6 mg laquinimod capsules contain 0.6 mg of Laquinimod Acid per capsule with meglumine, and were manufactured according to the method disclosed in PCT International Application Publication No. WO/2007/146248, published Dec. 21, 2007 (see, page 10, line 5 to page 11, line 3). • 2. Matching placebo for laquinimod arm: one capsule is administered once daily. The primary endpoint was the number of confirmed relapses during the double-blind study period. […] An event was counted as a relapse if the subject's symptoms were accompanied by observed objective neurological changes consistent with at least one of the following: an increase of at least 0.5 in the EDSS score; an increase of one grade in two or more of the seven functional systems; or an increase of two grades in one functional system. […] Secondary endpoints were disability progression as measured by the EDSS and the MSFC. […] Additional predefined disability endpoints include the proportion of patients without confirmed disability progression at 24 months; confirmed disability progression (defined as change in EDSS scores ≧1.0 points for baseline EDSS 0 to 5.0 or ≧5.5) sustained for six months; the accumulation of physical disability as measured by mean EDSS and the mean change in EDSS from baseline to last observed value (LOV). […]

subjects with RRMS [2] = assay: ALLEGRO sub-study: WM, GM and thalamic volume analysis (3D T1-weighted MRI); type: in vivo, human; settings: for Grey matter fraction, % change, median (range) / Thalamic fraction, % change, LS mean (SE) / White matter fraction, % change, median (range): laquinimod 0.6 mg/day oral; for Grey matter fraction, treatment effect (Hodges-Lehmann median estimate for treatment difference) / Thalamic fraction, treatment effect (LS mean difference) / White matter fraction, treatment effect (Hodges-Lehmann median estimate for treatment difference): laquinimod vs placebo; for Treatment effect of laquinimod on thalamic fraction: patients with thalamic lesions at baseline
Description: WM, GM, and thalamic volumes were derived from 3D T1-weighted images at baseline and at months 12 and 24. Patients with baseline and at least one valid scheduled post-baseline MRI were included in the analysis. Patients with thalamic lesions at baseline and a valid post-baseline MRI were included in the thalamic lesion analysis. Longitudinal WM and GM volume changes were calculated as the percentage difference from baseline to months 12 and 24. A separate calculation was performed between months 12 and 24. […] The ANCOVA (SAS® PROC GLM) model used treatment group, baseline value of the outcome, number of GdE lesions at baseline and country/geographic region, as covariates. Additionally, analyses of percentage changes in WM volume were also adjusted for GM volume at baseline due to the imbalance that was found between treatment groups at baseline. The Hodges-Lehmann (HL) large sample median estimator associated with the ranked values analysis approach was used to construct two-sided 95% confidence limits for the difference in treatment effects. Percent thalamic volume changes from baseline to months 12 and 24 followed normal distribution and thus were analysed using a parametric MMRM (SAS® PROC MIXED) model corrected for baseline thalamic volume, number of baseline GdE lesions, country/geographic region, visit, treatment and visit by treatment interaction. The least square (LS) mean difference was used to estimate treatment effect. As noted for the % change in WM and GM volumes, percent thalamic volume change from month 12 to month 24 was analyzed using a separate analysis of covariance (ANCOVA) (SAS® PROC GLM) model, since these values […] from the MMRM model. The ANCOVA model used treatment group, baseline thalamic volume, number of baseline GdE lesions and country/geographic region, as covariates. GM at baseline was used as an additional covariate to account for between treatment group imbalance in this measure at baseline.

Structure (SMILES): CCN(C(=O)c1c(O)c2c(Cl)cccc2n(C)c1=O)c1ccccc1 [Laquinimod]
- Annualized relapse rates (subjects with RRMS [1]): effectively reduced annualized relapse rates
- Brain atrophy (subjects with RRMS [1]): reduced brain atrophy
- Development of new lesions (subjects with RRMS [1]): reduced the development of new lesions
- Progression of disability (subjects with RRMS [1]): slowed the progression of disability
- Grey matter fraction, % change, median (range) (subjects with RRMS [2]; baseline to month 12): −0.3 (−19.4 to 22.4) %
- Thalamic fraction, % change, LS mean (SE) (subjects with RRMS [2]; baseline to month 12): −0.6 (0.12) %
- White matter fraction, % change, median (range) (subjects with RRMS [2]; baseline to month 12): 0.0 (−24.7 to 11.9) %
- Grey matter fraction, treatment effect (Hodges-Lehmann median estimate for treatment difference) (subjects with RRMS [2]; baseline to month 12): 0.502* %
- Thalamic fraction, treatment effect (LS mean difference) (subjects with RRMS [2]; baseline to month 12): 0.408^† %
- White matter fraction, treatment effect (Hodges-Lehmann median estimate for treatment difference) (subjects with RRMS [2]; baseline to month 12): 0.394* %
- Grey matter fraction, % change, median (range) (subjects with RRMS [2]; baseline to month 24): −0.9 (−17.4 to 21.2) %
- Thalamic fraction, % change, LS mean (SE) (subjects with RRMS [2]; baseline to month 24): −1.3 (0.15) %
- White matter fraction, % change, median (range) (subjects with RRMS [2]; baseline to month 24): −0.3 (−27.3 to 19.2) %
- Grey matter fraction, treatment effect (Hodges-Lehmann median estimate for treatment difference) (subjects with RRMS [2]; baseline to month 24): 0.372* %
- Thalamic fraction, treatment effect (LS mean difference) (subjects with RRMS [2]; baseline to month 24): 0.60^† %
- White matter fraction, treatment effect (Hodges-Lehmann median estimate for treatment difference) (subjects with RRMS [2]; baseline to month 24): 0.327* %
- Grey matter fraction, % change, median (range) (subjects with RRMS [2]; month 12 to month 24): −0.7 (−11.5 to 16.6) %
- Thalamic fraction, % change, LS mean (SE) (subjects with RRMS [2]; month 12 to month 24): −0.7 (0.13) %
- White matter fraction, % change, median (range) (subjects with RRMS [2]; month 12 to month 24): −0.2 (−15.3 to 15.0) %
- Grey matter fraction, treatment effect (Hodges-Lehmann median estimate for treatment difference) (subjects with RRMS [2]; month 12 to month 24): −0.078* %
- Thalamic fraction, treatment effect (LS mean difference) (subjects with RRMS [2]; month 12 to month 24): 0.233^† %
- White matter fraction, treatment effect (Hodges-Lehmann median estimate for treatment difference) (subjects with RRMS [2]; month 12 to month 24): −0.013* %
- Treatment effect of laquinimod on thalamic fraction (subjects with RRMS [2]; 12 months (p=0.018)): statistically significant
- Treatment effect of laquinimod on thalamic fraction (subjects with RRMS [2]; 24 months (p<0.0001)): statistically significant
- Treatment effect of laquinimod on thalamic fraction change vs placebo (subjects with RRMS [2]; patients without T2 thalamic lesions at baseline, month 12 or 24): not significantly different

— patent US20160296511A1, “LAQUINIMOD FOR REDUCING THALAMIC DAMAGE IN MULTIPLE SCLEROSIS” (Teva Pharmaceutical Industries, Ltd., priority 2012, published 2016)
